Results as given in patent publication US7041785B1, “B1-bradykinin receptor antagonists and use thereof” (Université de Sherbrooke, priority 1996, dated 2006).

Legend:
[1] = test system: streptozotocin-induced diabetic mice; settings: mouse, in vivo
Procedure: Male C57BL/Ks mdb mice were injected with streptozotocin (40 mg/kg) for 5 consecutive days. […] Treatment with antagonists was started 3 days after STZ and lasted for 10 days. Plasma glucose was determined by the glucose oxidase method, and 13 days urinary samples were assayed for proteins, nitrites and kallikreins.
Male C57BL/Ksmdb mice, 3 month old were provided by National Institute of Genetic, Buenos Aires. The animals were housed at a constant room temperature, with a 12 h light-dark cycle.
Blood (50–60 ul) was collected from the tail vein of non fasting animals in heparinized capillary tubes. Blood samples were taken one day before starting the STZ injection and at the day 13, just before sacrifice. Blood samples were centrifuged and the plasma immediately diluted into the appropriate buffer. Plasma glucose was determined by a glucose oxidase method (the kit was obtained from Wiener, Argentina). […] Urinary volume was determined gravimetrically and urinary samples were assayed for proteins^45, nitrites^40 and kallikrein^47.
Streptozotocin was purchased from the Sigma Chem Co., St. Louis, Mo. […] The paranitroanilide (pNA) released by enzymatic action on the substrate was measured calorimetrically to determine kallikrein activity
All data were expressed as mean=S.E. Analysis of Variance (ANOVA) was performed to evaluate differences among the groups. p<0.05 was considered as significant.

[2] = molecular target: T1, angiotensin-converting enzyme (ACE) from rabbit lungs (Oryctolagus cuniculus, UniProt P12822); settings: cited from earlier work
T1 sequence (P12822 34-1310): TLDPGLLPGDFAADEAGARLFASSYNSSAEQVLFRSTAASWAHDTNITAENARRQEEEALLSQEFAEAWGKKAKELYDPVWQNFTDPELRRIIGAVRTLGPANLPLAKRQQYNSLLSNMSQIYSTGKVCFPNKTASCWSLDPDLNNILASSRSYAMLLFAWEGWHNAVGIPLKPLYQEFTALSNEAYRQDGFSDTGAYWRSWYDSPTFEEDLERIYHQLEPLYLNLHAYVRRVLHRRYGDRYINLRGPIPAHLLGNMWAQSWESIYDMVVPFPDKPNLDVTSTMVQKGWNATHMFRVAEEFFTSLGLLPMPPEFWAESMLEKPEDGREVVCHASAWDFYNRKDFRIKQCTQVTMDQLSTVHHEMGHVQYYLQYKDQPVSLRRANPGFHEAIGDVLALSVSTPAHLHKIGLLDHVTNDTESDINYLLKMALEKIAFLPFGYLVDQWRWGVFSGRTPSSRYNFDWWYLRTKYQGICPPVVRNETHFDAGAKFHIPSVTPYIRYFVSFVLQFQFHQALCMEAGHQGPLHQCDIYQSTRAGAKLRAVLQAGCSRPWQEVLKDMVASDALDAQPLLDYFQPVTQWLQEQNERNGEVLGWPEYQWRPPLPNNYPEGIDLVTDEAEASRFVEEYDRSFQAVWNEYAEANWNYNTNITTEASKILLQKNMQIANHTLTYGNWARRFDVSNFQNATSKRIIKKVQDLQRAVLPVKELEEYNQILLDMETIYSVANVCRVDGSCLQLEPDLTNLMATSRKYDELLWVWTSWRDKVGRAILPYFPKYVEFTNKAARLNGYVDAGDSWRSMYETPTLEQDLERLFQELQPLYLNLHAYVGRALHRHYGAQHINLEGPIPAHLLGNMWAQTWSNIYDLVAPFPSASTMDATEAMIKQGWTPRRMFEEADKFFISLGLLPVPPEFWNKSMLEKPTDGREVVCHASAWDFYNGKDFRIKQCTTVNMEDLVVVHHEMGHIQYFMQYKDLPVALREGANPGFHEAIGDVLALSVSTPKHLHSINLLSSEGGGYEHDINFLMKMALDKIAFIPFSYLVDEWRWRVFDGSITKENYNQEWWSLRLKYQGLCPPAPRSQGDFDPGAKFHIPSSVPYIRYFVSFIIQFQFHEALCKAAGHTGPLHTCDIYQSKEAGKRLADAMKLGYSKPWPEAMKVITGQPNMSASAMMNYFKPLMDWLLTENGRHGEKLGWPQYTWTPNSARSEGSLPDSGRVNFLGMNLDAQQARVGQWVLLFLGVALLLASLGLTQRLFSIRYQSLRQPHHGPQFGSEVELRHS

BK-B1 receptor = molecular target: T2, BK-B1 receptor (Rattus norvegicus, UniProt P97583); assay: Isometric contraction of portal vein segments from STZ-induced diabetic rats; type: cell-based; settings: P<0.001
T2 construct: Segments of the portal vein (a known preparation for BK studies) from these rats were mounted in organ baths; from tissue; host or cells: rat portal vein segments (STZ-diabetic and normal rats)
T2 sequence (P97583 1-337): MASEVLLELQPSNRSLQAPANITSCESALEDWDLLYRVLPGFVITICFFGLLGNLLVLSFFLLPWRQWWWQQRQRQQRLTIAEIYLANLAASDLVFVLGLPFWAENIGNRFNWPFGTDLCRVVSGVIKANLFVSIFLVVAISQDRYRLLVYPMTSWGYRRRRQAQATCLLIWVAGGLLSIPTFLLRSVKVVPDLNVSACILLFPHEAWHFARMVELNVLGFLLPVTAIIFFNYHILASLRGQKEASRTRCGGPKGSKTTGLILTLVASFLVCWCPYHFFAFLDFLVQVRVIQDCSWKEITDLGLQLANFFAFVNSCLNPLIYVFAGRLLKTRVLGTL
Source text: Capillary permeability is known to be selectively augmented in the streptozotocin (STZ) diabetic rat model^49. The vascular BK receptors in the STZ-induced diabetic rat was examined. Segments of the portal vein (a known preparation for BK studies) from these rats were mounted in organ baths for isometric contraction studies. The response to desArg^9BK, a specific BK–B1 receptor agonist, was enhanced by 118% in the diabetic tissue, compared to normal portal veins (0.48 vs 0.22g: P<0.001). […] HOE140, the BK–B2 receptor antagonist, had no effect on the diabetic portal vein abnormality. Evans blue (EB: 20 mg/kg), a marker of albumin extravasation, was injected to unanesthetized diabetic rats. […] Therefore, it was concluded that post-capillary hypercontractility to BK (via its B1 receptor) forces EB extravasation, and likely contributed to the diabetic vasculopathy.

| Compound | Body weight [1] | Metabolism of naturally-occurring kinins by ACE [2] | Enhancement of response in diabetic tissue compared to normal portal veins (BK-B1 receptor) [%] |
| --- | --- | --- | --- |
| NC(N)=NCCC[C@@H](N)C(=O)N[C@@H](CCCN=C(N)N)C(=O)N1CCC[C@H]1C(=O)N1C[C@H](O)C[C@H]1C(=O)NCC(=O)N[C@@H](Cc1cccs1)C(=O)N[C@@H](CO)C(=O)N1Cc2ccccc2C[C@@H]1C(=O)N1[C@H](C(=O)N[C@@H](CCCN=C(N)N)C(=O)O)C[C@@H]2CCCC[C@@H]21 [HOE140, D-Arg(Hyp^3, Thi^5, D-Tic^7, Oic^8)BK] | No changes of body weight | – | – |
| N=C(N)NCCC[C@H](N)C(=O)N1CCC[C@H]1C(=O)N1CCC[C@H]1C(=O)NCC(=O)N[C@@H](Cc1ccccc1)C(=O)N[C@@H](CO)C(=O)N1CCC[C@H]1C(=O)N[C@@H](Cc1ccccc1)C(=O)O [desArg^9BK, Arg-Pro-Pro-G1y-Phe-Ser-Pro-Phe] | – | fully metabolised | 118 |
